Experimental data from patent US20040057955A1, “Methods of inhibition of stenosis and/or sclerosis of the aortic valve” (priority 2003, published 2004).

Columns and labels:
Assay type in all cases: in vivo, human
[1] = tested on: patients with mild to moderate aortic stenosis; test: Clinical follow up (vital signs, symptoms) in ramipril pilot study; details: for HR sitting / HR supine: in bpm (unit assumed); for DBP supine / SBP supine: in mmHg
Experimental: (§1) Clinical Protocol: This pilot study enrolled 8 patients with mild to moderate aortic stenosis, normal left ventricular (LV) function and no history of coronary artery disease. […] Patients then were placed on the ACE inhibitor ramipril, 2.5 mg qd for 2 weeks followed by up-titration at 2 week intervals to 2.5 mg bid, 5 mg bid and 7.5 mg bid. The study lasted 8 weeks. Vital signs were repeated weekly, chemistry panels every 2 weeks and echocardiograms every 4 weeks.

[2] = tested on: patients with mild to moderate aortic stenosis; test: Lab measures (chemistry panel) in ramipril pilot study
Experimental: as §1

[3] = tested on: patients with mild to moderate aortic stenosis; test: Echo measures (echocardiogram) in ramipril pilot study
Experimental: as §1

[4] = Week 1, ramipril dose 2.5 × 1, n = 8, mean±SD
[5] = Week 1, ramipril dose 2.5 × 1, n = 8
[6] = Week 2, ramipril dose 2.5 × 1, n = 8, mean±SD
[7] = Week 2, ramipril dose 2.5 × 1, n = 8
[8] = Week 3, ramipril dose 2.5 × 2, n = 8, mean±SD
[9] = Week 3, ramipril dose 2.5 × 2, n = 8
[10] = Week 4, ramipril dose 2.5 × 2, n = 8, mean±SD
[11] = Week 4, ramipril dose 2.5 × 2, n = 8
[12] = Week 5, ramipril dose 5 × 2, n = 8, mean±SD
[13] = Week 5, ramipril dose 5 × 2, n = 8
[14] = Week 6, ramipril dose 5 × 2, n = 8, mean±SD
[15] = Week 6, ramipril dose 5 × 2, n = 8
[16] = Week 7, ramipril dose 7.5 × 2, n = 8, mean±SD
[17] = Week 7, ramipril dose 7.5 × 2, n = 8
[18] = Week 8 (final), ramipril dose 7.5 × 2, n = 8, mean±SD
[19] = Week 8 (final), ramipril dose 7.5 × 2, n = 8, mean±SD, listed as Ramipril
[20] = Week 8, ramipril dose 7.5 × 2, n = 8
[21] = count among n = 8, Week 1, ramipril dose 2.5 × 1
[22] = count among n = 8, Week 2, ramipril dose 2.5 × 1
[23] = count among n = 8, Week 3, ramipril dose 2.5 × 2
[24] = count among n = 8, Week 4, ramipril dose 2.5 × 2
[25] = count among n = 8, Week 5, ramipril dose 5 × 2
[26] = count among n = 8, Week 6, ramipril dose 5 × 2
[27] = count among n = 8, Week 7, ramipril dose 7.5 × 2
[28] = count among n = 8, Week 8, ramipril dose 7.5 × 2

CCOC(=O)[C@H](CCc1ccccc1)N[C@@H](C)C(=O)N1[C@H](C(=O)O)C[C@@H]2CCC[C@@H]21 [ramipril]
DBP sitting [1, 4]: 67 ± 9 mmHg | SBP sitting [1, 4]: 109 ± 17 mmHg | HR sitting [1, 5]: 60 ± 9 | HR supine [1, 5]: 58 ± 5 | DBP supine [1, 5]: 62 ± 5 | SBP supine [1, 5]: 106 ± 15 | DBP sitting [1, 6]: 65 ± 8 mmHg | SBP sitting [1, 6]: 113 ± 16 mmHg | HR sitting [1, 7]: 61 ± 8 | HR supine [1, 7]: 63 ± 6 | DBP supine [1, 7]: 60 ± 9 | SBP supine [1, 7]: 110 ± 12 | DBP sitting [1, 8]: 65 ± 8 mmHg | SBP sitting [1, 8]: 111 ± 15 mmHg | HR sitting [1, 9]: 62 ± 8 | HR supine [1, 9]: 62 ± 11 | DBP supine [1, 9]: 60 ± 7 | SBP supine [1, 9]: 107 ± 14 | DBP sitting [1, 10]: 64 ± 5 mmHg | SBP sitting [1, 10]: 112 ± 16 mmHg | HR sitting [1, 11]: 65 ± 7 | HR supine [1, 11]: 64 ± 7 | DBP supine [1, 11]: 64 ± 8 | SBP supine [1, 11]: 111 ± 14 | DBP sitting [1, 12]: 67 ± 9 mmHg | SBP sitting [1, 12]: 116 ± 17 mmHg | HR sitting [1, 13]: 62 ± 6 | HR supine [1, 13]: 61 ± 7 | DBP supine [1, 13]: 69 ± 10 | SBP supine [1, 13]: 116 ± 17 | DBP sitting [1, 14]: 65 ± 4 mmHg | SBP sitting [1, 14]: 118 ± 20 mmHg | HR sitting [1, 15]: 61 ± 8 | HR supine [1, 15]: 61 ± 5 | DBP supine [1, 15]: 65 ± 6 | SBP supine [1, 15]: 114 ± 20 | DBP sitting [1, 16]: 70 ± 10 mmHg | SBP sitting [1, 16]: 121 ± 13 mmHg | HR sitting [1, 17]: 61 ± 4 | HR supine [1, 17]: 61 ± 6 | DBP supine [1, 17]: 72 ± 6 | SBP supine [1, 17]: 121 ± 13 | DBP sitting [1, 18]: 65±10 mmHg | SBP sitting [1, 18]: 114±14 mmHg | DBP sitting [1, 19]: 65 ± 10 mmHg | SBP sitting [1, 19]: 114 ± 14 mmHg | HR sitting ([1]; Week 8 (final), ramipril dose 7.5 × 2, n = 8): 62±3 | HR sitting ([1]; Week 8 (final), ramipril dose 7.5 × 2, n = 8, listed as Ramipril): 62 ± 3 | HR supine [1, 20]: 62 ± 3 | DBP supine [1, 20]: 63 ± 6 | SBP supine [1, 20]: 120 ± 15 | Cough [1, 21]: 0 | Ghest pain [1, 21]: 0 | Hyper-sensitivity [1, 21]: 0 | Light-headedness [1, 21]: 0 | Cough [1, 22]: 0 | Ghest pain [1, 22]: 0 | Hyper-sensitivity [1, 22]: 0 | Light-headedness [1, 22]: 0 | Cough [1, 23]: 0 | Ghest pain [1, 23]: 0 | Hyper-sensitivity [1, 23]: 0 | Light-headedness [1, 23]: 0 | Cough [1, 24]: 0 | Ghest pain [1, 24]: 0 | Hyper-sensitivity [1, 24]: 0 | Light-headedness [1, 24]: 0 | Cough [1, 25]: 0 | Ghest pain [1, 25]: 0 | Hyper-sensitivity [1, 25]: 0 | Light-headedness [1, 25]: 0 | Cough [1, 26]: 2 | Ghest pain [1, 26]: 1 | Hyper-sensitivity [1, 26]: 0 | Light-headedness [1, 26]: 0 | Cough [1, 27]: 0 | Ghest pain [1, 27]: 0 | Hyper-sensitivity [1, 27]: 0 | Light-headedness [1, 27]: 0 | Cough [1, 28]: 1 | Ghest pain [1, 28]: 1 | Hyper-sensitivity [1, 28]: 0 | Light-headedness [1, 28]: 1 | Creatinine ([2]; Week 1, n = 8, mean±SD): 1.1 ± 0.3 mg/dL | Glucose ([2]; Week 1, n = 8, mean±SD): 97 ± 29 mg/dL | Potassium ([2]; Week 1, n = 8, mean±SD): 4.3 ± 0.3 mEq/L | Creatinine ([2]; Week 3, n = 8, mean±SD): 1.2 ± 0.4 mg/dL | Glucose ([2]; Week 3, n = 8, mean±SD): 96 ± 15 mg/dL | Potassium ([2]; Week 3, n = 8, mean±SD): 4.4 ± 0.4 mEq/L | Creatinine ([2]; Week 5, n = 8, mean±SD): 1.1 ± 0.3 mg/dL | Glucose ([2]; Week 5, n = 8, mean±SD): 91 ± 18 mg/dL | Potassium ([2]; Week 5, n = 8, mean±SD): 4.3 ± 0.5 mEq/L | Creatinine ([2]; Week 7, n = 8, mean±SD): 1.1 ± 0.3 mg/dL | Glucose ([2]; Week 7, n = 8, mean±SD): 91 ± 19 mg/dL | Potassium ([2]; Week 7, n = 8, mean±SD): 4.4 ± 0.5 mEq/L | Creatinine ([2]; final measurement, mean±SD): 1.1 ± 0.3 mg/dL | Glucose ([2]; final measurement, mean±SD): 91 ± 18 mg/dL | Potassium ([2]; final measurement, mean±SD): 4.3 ± 0.5 mEq/L | AS-Jet (aortic stenosis jet velocity) ([3]; Week4, n = 8, mean±SD): 2.8 ± 0.2 m/sec | Cardiac output ([3]; Week4, n = 8, mean±SD): 5.9 ± 1.5 L/min | LVEF ([3]; Week4, n = 8, mean±SD): 73 ± 4% | LVOT-velocity (left ventricular outflow tract velocity) ([3]; Week4, n = 8, mean±SD): 1.1 ± 0.1 m/sec | AS-Jet (aortic stenosis jet velocity) ([3]; Week8 (final), n = 8, mean±SD): 2.8±0.3 m/sec | Cardiac output ([3]; Week8 (final), n = 8, mean±SD): 5.7 ± 1.4 L/min | LVEF ([3]; Week8 (final), n = 8, mean±SD): 71±7% | LVOT-velocity (left ventricular outflow tract velocity) ([3]; Week8 (final), n = 8, mean±SD): 1.0±0.2 m/sec
